Test results reported in PMC9848300, “Discovery of novel enasidenib analogues targeting inhibition of mutant isocitrate dehydrogenase 2 as antileukaemic agents” (Journal of Enzyme Inhibition and Medicinal Chemistry, 2023).

Assays:
Assay type in all cases: cell-based
SK-MEL-28 = experiment: NCI 60 antitumor screening (single dose / five doses); conditions: Homo sapiens; for inhibition at 10 µM: SK-MEL-28 (melanoma), single dose 10 μM, read-out: Growth inhibition percentage (GI %)
MALME-3M = experiment: as above; conditions: Homo sapiens; for inhibition at 10 µM: MALME-3M (melanoma), single dose 10 μM, read-out: Growth inhibition percentage (GI %)
MDA-MB-435 = experiment: as above; conditions: Homo sapiens; for inhibition at 10 µM: MDA-MB-435 (melanoma), single dose 10 μM, read-out: Growth inhibition percentage (GI %)
[1] = system: 60 human subpanel cancer cell lines; experiment: NCI 60 antitumor screening, mean over the panel (single dose); conditions: mean over 60 cancer cell lines, single dose 10 μM
Summary of the method: (§1)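 NCI-60 one-dose screen. Dose: 10 μM. Lines: 60 human tumour lines, nine tissue types. Output: GI% = 100 − G%.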

T-47D = experiment: NCI 60 antitumor screening (single dose / five doses); conditions: Homo sapiens, T47D; for inhibition at 10 µM: T-47D (breast cancer), single dose 10 μM, read-out: Growth inhibition percentage (GI %)
SF-539 = experiment: as above; conditions: Homo sapiens; for inhibition at 10 µM: SF-539 (CNS cancer), single dose 10 μM, read-out: Growth inhibition percentage (GI %)
SR = experiment: as above; conditions: Homo sapiens; for inhibition at 10 µM: SR (leukaemia), single dose 10 μM, read-out: Growth inhibition percentage (GI %)
KM 12 = experiment: NCI 60 antitumor screening (single dose); conditions: Homo sapiens, KM12; KM 12 (colon cancer), single dose 10 μM; read-out: Growth inhibition percentage (GI %)
Summary of the method: (§2)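 Percent growth inhibition, calculated as 100 minus percent growth (G%) of treated cells, following a single 10 μM exposure in the NCI 60 human cancer cell screen; triplicate runs.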

SK-OV-3 = experiment: NCI 60 antitumor screening (single dose); conditions: Homo sapiens; SK-OV-3 (ovarian cancer), single dose 10 μM; read-out: Growth inhibition percentage (GI %)
Summary of the method: as §1

CAKI-1 = experiment: NCI 60 antitumor screening (single dose); conditions: Homo sapiens; CAKI-1 (renal cancer), single dose 10 μM; read-out: Growth inhibition percentage (GI %)
Summary of the method: as §2

A549/ATCC = experiment: NCI 60 antitumor screening (single dose); conditions: Homo sapiens; A549/ATCC (non-small cell lung cancer), single dose 10 μM; read-out: Growth inhibition percentage (GI %)
Summary of the method: as §2

OVCAR-5 = experiment: NCI 60 antitumor screening (single dose); conditions: Homo sapiens; OVCAR-5 (ovarian cancer), single dose 10 μM; read-out: Growth inhibition percentage (GI %)
Summary of the method: as §1

SF-268 = experiment: NCI 60 antitumor screening (single dose); conditions: Homo sapiens; SF-268 (CNS cancer), single dose 10 μM; read-out: Growth inhibition percentage (GI %)
Summary of the method: as §1

U251 = experiment: NCI 60 antitumor screening (single dose); conditions: Homo sapiens, U-251; U251 (CNS cancer), single dose 10 μM; read-out: Growth inhibition percentage (GI %)
Summary of the method: as §1

OVCAR-4 = experiment: NCI 60 antitumor screening (single dose); conditions: Homo sapiens; OVCAR-4 (ovarian cancer), single dose 10 μM; read-out: Growth inhibition percentage (GI %)
Summary of the method: as §2

NCI-H322M = experiment: NCI 60 antitumor screening (single dose); conditions: Homo sapiens; NCI-H322M (non-small cell lung cancer), single dose 10 μM; read-out: Growth inhibition percentage (GI %)
Summary of the method: as §2

MCF7 = experiment: NCI 60 antitumor screening (single dose); conditions: Homo sapiens; MCF7 (breast cancer), single dose 10 μM; read-out: Growth inhibition percentage (GI %)
Summary of the method: as §2

M14 = experiment: NCI 60 antitumor screening (single dose); conditions: Homo sapiens; M14 (melanoma), single dose 10 μM; read-out: Growth inhibition percentage (GI %)
Summary of the method: as §2

SNB-19 = experiment: NCI 60 antitumor screening (single dose); conditions: Homo sapiens; SNB-19 (CNS cancer), single dose 10 μM; read-out: Growth inhibition percentage (GI %)
Summary of the method: as §2

OVCAR-3 = experiment: NCI 60 antitumor screening (single dose); conditions: Homo sapiens; OVCAR-3 (ovarian cancer), single dose 10 μM; read-out: Growth inhibition percentage (GI %)
Summary of the method: as §2

NCI-H23 = experiment: NCI 60 antitumor screening (single dose); conditions: Homo sapiens; NCI-H23 (non-small cell lung cancer), single dose 10 μM; read-out: Growth inhibition percentage (GI %)
Summary of the method: as §1

NCI-H522 = experiment: NCI 60 antitumor screening (single dose); conditions: Homo sapiens; NCI-H522 (non-small cell lung cancer), single dose 10 μM; read-out: Growth inhibition percentage (GI %)
Summary of the method: as §1

NCI-H226 = experiment: NCI 60 antitumor screening (single dose); conditions: Homo sapiens; NCI-H226 (non-small cell lung cancer), single dose 10 μM; read-out: Growth inhibition percentage (GI %)
Summary of the method: as §2

HS 578T = experiment: NCI 60 antitumor screening (single dose); conditions: Homo sapiens; HS 578T (breast cancer), single dose 10 μM; read-out: Growth inhibition percentage (GI %)
Summary of the method: as §2

SK-MEL-2 = experiment: NCI 60 antitumor screening (single dose / five doses); conditions: Homo sapiens; for inhibition at 10 µM: SK-MEL-2 (melanoma), single dose 10 μM, read-out: Growth inhibition percentage (GI %)
DU-145 = experiment: as above; conditions: Homo sapiens; for inhibition at 10 µM: DU-145 (prostate cancer), single dose 10 μM, read-out: Growth inhibition percentage (GI %)
HCT-116 = experiment: as above; conditions: Homo sapiens; for inhibition at 10 µM: HCT-116 (colon cancer), single dose 10 μM, read-out: Growth inhibition percentage (GI %)

| Structure (SMILES) | inhibition at 10 µM (SK-MEL-28) | inhibition at 10 µM (MALME-3M) | inhibition at 10 µM (MDA-MB-435) | Mean GI % [1] | inhibition at 10 µM (T-47D) | inhibition at 10 µM (SF-539) | inhibition at 10 µM (SR) | inhibition at 10 µM (KM 12) | inhibition at 10 µM (SK-OV-3) | inhibition at 10 µM (CAKI-1) | inhibition at 10 µM (A549/ATCC) | inhibition at 10 µM (OVCAR-5) | inhibition at 10 µM (SF-268) | inhibition at 10 µM (U251) | inhibition at 10 µM (OVCAR-4) | inhibition at 10 µM (NCI-H322M) | inhibition at 10 µM (MCF7) | inhibition at 10 µM (M14) | inhibition at 10 µM (SNB-19) | inhibition at 10 µM (OVCAR-3) | further results |
| --- | --- | --- | --- | --- | --- | --- | --- | --- | --- | --- | --- | --- | --- | --- | --- | --- | --- | --- | --- | --- | --- |
| Clc1cccc(/C=N/Nc2nc(N/N=C/c3cccc(Cl)c3)nc(N3CCCCC3)n2)c1 [compound 7d, 2,4-Bis[(E)-2-[(3-Chlorophenyl)methylidene]hydrazin-1-yl]-6-(piperidin-1-yl)-1,3,5-triazine] | 3.79% | -9.06% | 9.61% | 7.03% | 24% | -5.25% | 25.4% | 8.95% | -9.25% | 7.63% | 13.7% | -10.4% | 8.03% | 8.35% | 9.83% | -1.33% | 16.9% | 4.75% | 1.37% | 8.59% | inhibition at 10 µM (NCI-H23): 2.24%; inhibition at 10 µM (NCI-H522): 11.7%; inhibition at 10 µM (NCI-H226): 18%; inhibition at 10 µM (HS 578T): -4.65%; inhibition at 10 µM (SK-MEL-2): 13.9%; inhibition at 10 µM (DU-145): 5.38%; inhibition at 10 µM (HCT-116): 2.75% |
| Fc1cccc(Cl)c1/C=N/Nc1nc(N/N=C/c2c(F)cccc2Cl)nc(N2CCOCC2)n1 [compound 6l, 2,4-Bis[(E)-2-[(2-Chloro-6-fluorophenyl)methylidene]hydrazin-1-yl]-6-(morpholin-4-yl)-1,3,5-triazine] | 10% | 16% | 19.4% | 19.00% | 29.5% | 7.53% | 27.8% | 18.9% | 7.59% | 17.5% | 21% | -12.4% | 11.2% | 11.8% | 32.8% | 16.2% | 29% | 27.8% | 12.9% | 22.9% | inhibition at 10 µM (NCI-H23): 27.2%; inhibition at 10 µM (NCI-H522): 14.4%; inhibition at 10 µM (NCI-H226): 20.4%; inhibition at 10 µM (HS 578T): 5%; inhibition at 10 µM (SK-MEL-2): 17.1%; inhibition at 10 µM (DU-145): 4.76%; inhibition at 10 µM (HCT-116): 16.4% |
| CN(C)c1ccc(/C=N/Nc2nc(N/N=C/c3ccc(N(C)C)cc3)nc(N3CCCCC3)n2)cc1 [compound 7g, 4-[(1e)-(2-{4-[(E)-2-{[4-(dimethylamino)phenyl]methylidene}chydrazin-1-yl]-6-(piperidin-1-yl)-1,3,5-triazin-2-yl}hydrazin-1-ylidene)methyl]-N,N-dimethylaniline] | 58.3% | 167% | 39.6% | 35.10% | 54% | 112% | 114% | 6.98% | -31.8% | 10.1% | 21.6% | 3.87% | -5.33% | 50% | -6.05% | -0.12% | 68.9% | 27.2% | 13.9% | 34.4% | GI50 (SK-MEL-28; SK-MEL-28, five doses (0.01–100 μM), read-out: GI50): 2000 nM; GI50 (MALME-3M; MALME-3M, five doses (0.01–100 μM), read-out: GI50): 1860 nM; GI50 (MDA-MB-435; MDA-MB-435, five doses (0.01–100 μM), read-out: GI50): 1940 nM; GI50 (T-47D; T-47D, five doses (0.01–100 μM), read-out: GI50): 2180 nM; GI50 (SF-539; SF-539, five doses (0.01–100 μM), read-out: GI50): 1990 nM; GI50 (SR; SR, five doses (0.01–100 μM), read-out: GI50): 360 nM; inhibition at 10 µM (NCI-H23): 3.27%; inhibition at 10 µM (NCI-H522): 3.84%; inhibition at 10 µM (NCI-H226): -1.93%; inhibition at 10 µM (HS 578T): -6.05%; inhibition at 10 µM (SK-MEL-2): -10.8%; GI50 (SK-MEL-2; SK-MEL-2, five doses (0.01–100 μM)): 1990 nM; inhibition at 10 µM (DU-145): 22.5%; GI50 (DU-145; DU-145, five doses (0.01–100 μM), read-out: GI50): 3920 nM; inhibition at 10 µM (HCT-116): 85.1%; GI50 (HCT-116; HCT-116, five doses (0.01–100 μM), read-out: GI50): 1640 nM |
| Brc1ccccc1/C=N/Nc1nc(N/N=C/c2ccccc2Br)nc(N2CCCCC2)n1 [compound 7b, 2,4-Bis[(E)-2-[(2-Bromophenyl)methylidene]hydrazin-1-yl]-6-(piperidin-1-yl)-1,3,5-triazine] | -0.81% | -6.25% | -1.23% | −0.12% | 11.2% | 2.62% | -1.34% | 2% | -0.76% | 3.19% | -2.25% | 0.1% | -1.64% | -2.15% | 0.53% | 3.65% | 13.2% | -4.12% | 3.76% | -6.1% | inhibition at 10 µM (NCI-H23): 4.71%; inhibition at 10 µM (NCI-H522): 6.02%; inhibition at 10 µM (NCI-H226): 10.9%; inhibition at 10 µM (HS 578T): -5.25%; inhibition at 10 µM (SK-MEL-2): -1.28%; inhibition at 10 µM (DU-145): -4.47%; inhibition at 10 µM (HCT-116): -2.25% |
| C(=N\Nc1nc(N/N=C/c2ccc3c(c2)OCO3)nc(N2CCOCC2)n1)/c1ccc2c(c1)OCO2 [compound 6k, 2,4-Bis[(E)-2-(2H-1,3-Benzodioxol-5-ylmethylidene)hydrazin-1-yl]-6-(morpholin-4-yl)-1,3,5-triazine] | 12.8% | -3.77% | 4.07% | 20.69% | 23.8% | 18.2% | 85% | 17.4% | -11.8% | 21.1% | 17.7% | -1.78% | 8.94% | 24.1% | 8.16% | 11.8% | 30.9% | 5.09% | 5.57% | 6.73% | inhibition at 10 µM (NCI-H23): 17%; inhibition at 10 µM (NCI-H522): 12.5%; inhibition at 10 µM (NCI-H226): 22%; inhibition at 10 µM (HS 578T): 16.7%; inhibition at 10 µM (SK-MEL-2): 1.68%; inhibition at 10 µM (DU-145): 23.9%; inhibition at 10 µM (HCT-116): 37.1% |
